Results: patent US6737383B1, “Herbicidal oxadiazolidines” (priority 1999, dated 2004)

Assays:
Italian ryegrass = experiment: Test E Italian ryegrass; type: in vivo, Lolium multiflorum; details: Preemergence
blackgrass = experiment: Test E blackgrass; type: in vivo, Alopecurus myosuroides; details: Preemergence
winter wheat [1] = experiment: Test E winter wheat; type: in vivo, Triticum aestivum; details: Preemergence
winter barley = experiment: Test E winter barley; type: in vivo, Hordeum vulgare; details: Preemergence
bamyardgrass = experiment: Test B flood test barnyardgrass; type: in vivo, Echinochloa crus-galli
Procedure, shortened: (§1)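 Read-out is a visual response score from 0 (no effect) to 10 (complete control), assigned by comparison with untreated controls. Treatment was applied at the 2-leaf stage, and plants stayed in the greenhouse for twelve to sixteen days before scoring.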

green foxtail = experiment: Test E green foxtail; type: in vivo, Setaria viridis; details: Preemergence
crabgrass = experiment: Test B pre/postemergence crabgrass; type: in vivo, Digitaria sanguinalis
Procedure, shortened: (§2)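 Herbicidal effect was estimated by eye on a ten-point control scale after plants spent twelve to sixteen days in a greenhouse following soil or foliar treatment. Foliar sprays targeted plants at one to four leaves; all doses were formulated in a non-phytotoxic solvent with surfactant.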

winter wheat [2] = experiment: Test E winter wheat; type: in vivo, Triticum aestivum; details: Postemergence
Procedure, shortened: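 Greenhouse test: compounds in non-phytotoxic solvent with surfactant; for postemergence, sprayed on plants at 1- to 4-leaf stage grown in 60:40 sandy loam/potting mix. Injury rated visually against untreated controls after about 21 to 28 days.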

wild oat = experiment: Test E wild oat; type: in vivo, Avena fatua; details: Preemergence
purple nutsedge = experiment: Test B pre/postemergence purple nutsedge; type: in vivo, Cyperus rotundus
Procedure, shortened: as §2

duck salad = experiment: Test B flood test duck salad; type: in vivo, Heteranthera limosa
Procedure, shortened: as §1

[3] = Rate 62 g/ha, 0 to 100 scale, 0 no effect, 100 complete control
[4] = Rate 125 g/ha, 0 to 100 scale (0 no effect, 100 complete control)
[5] = Rate 500 g/ha, 0 to 100 scale where 0 is no effect and 100 is complete control
[6] = Rate 250 g/ha, headed Pre-emergence (flood test species), scale 0 to 10 (0 no effect, 10 complete control)
[7] = Rate 500 g/ha, headed Pre-emergence (flood test species), scale 0 to 10 (0 no effect, 10 complete control)
[8] = Rate 500 g/ha, listed under Postemergence (flood test species), scale 0 to 10, 0 no effect, 10 complete control
[9] = Rate 1000 g/ha, Pre-emergence (as headed), scale 0 to 10
[10] = flood test, listed under Postemergence, Rate 250 g/ha, scale 0 to 10, 0 no effect, 10 complete control
[11] = Postemergence, Rate 125 g/ha, scale of 0 to 10 where 0 is no effect and 10 is complete control
[12] = Postemergence, Rate 250 g/ha, scale 0 to 10, 0 no effect, 10 complete control
[13] = Preemergence, Rate 62 g/ha, scale 0 to 10 (0 no effect, 10 complete control)
[14] = Preemergence, Rate 125 g/ha, scale 0 to 10 (0 no effect, 10 complete control)
[15] = Preemergence, Rate 250 g/ha, scale of 0 to 10 where 0 is no effect and 10 is complete control
[16] = Preemergence, Rate 500 g/ha, scale 0 to 10 (0 no effect, 10 complete control)
[17] = Rate 62 g/ha, Postemergence, scale of 0 to 10 where 0 is no effect and 10 is complete control
[18] = Rate 500 g/ha, Postemergence, scale 0 to 10, 0 no effect, 10 complete control

CCn1c(=O)on(C(=O)N(c2ccc(F)cc2F)C(C)C)c1=O [Compound 116]
60: Plant response rating, I. Ryegrass (Italian ryegrass; Rate 250 g/ha, 0 to 100 scale)
5: Nutsedge plant response rating (purple nutsedge; [17])
1: Ducksalad plant response rating (duck salad; [9])
4: Barnyardgrass plant response rating (bamyardgrass; [8])
20: Plant response rating, Wheat (winter) (winter wheat [2]; Rate 62 g/ha, 0 to 100 scale) | Plant response rating, Wild oat (wild oat; [3])
80: Plant response rating, Barley (winter) (winter barley; [5]) | Plant response rating, Wild oat (wild oat; [5])
10: Plant response rating, Barley (winter) (winter barley; [3]) | Plant response rating, Crabgrass (crabgrass; [14]) | Plant response rating, Crabgrass (crabgrass; [15]) | Crabgrass plant response rating (crabgrass; [16]) | Plant response rating, Wheat (winter) (winter wheat [2]; Rate 125 g/ha, 0 to 100 scale) | Plant response rating, Wheat (winter) (winter wheat [2]; Rate 500 g/ha, 0 to 100 scale, 0 no effect, 100 complete control)
7: Nutsedge plant response rating (purple nutsedge; [11])
45: Plant response rating, Blackgrass (blackgrass; Rate 250 g/ha, 0 to 100 scale) | Plant response rating, Wheat (winter) (winter wheat [2]; Rate 250 g/ha, 0 to 100 scale (0 no effect, 100 complete control))
8: Crabgrass plant response rating (crabgrass; [13]) | Nutsedge plant response rating (purple nutsedge; [12]) | Ducksalad plant response rating (duck salad; Rate 2000 g/ha, Pre-emergence (as headed), scale 0 to 10)
50: Plant response rating, I. Ryegrass (Italian ryegrass; [3]) | Plant response rating, Blackgrass (blackgrass; [4]) | Plant response rating, Green foxtail (green foxtail; [4])
70: Plant response rating, Barley (winter) (winter barley; Rate 250 g/ha, 0 to 100 scale)
9: Barnyardgrass plant response rating (bamyardgrass; Rate 2000 g/ha, Pre-emergence (as headed), scale 0 to 10, 0 no effect, 10 complete control) | Crabgrass plant response rating (crabgrass; [11]) | Crabgrass plant response rating (crabgrass; [12]) | Crabgrass plant response rating (crabgrass; [17]) | Crabgrass plant response rating (crabgrass; [18]) | Nutsedge plant response rating (purple nutsedge; [18])
55: Plant response rating, Wheat (winter) (winter wheat [1]; [4])
30: Plant response rating, I. Ryegrass (Italian ryegrass; [4]) | Plant response rating, Wheat (winter) (winter wheat [1]; [3]) | Plant response rating, Wheat (winter) (winter wheat [1]; Rate 250 g/ha, 0 to 100 scale) | Plant response rating, Barley (winter) (winter barley; [4]) | Plant response rating, Wild oat (wild oat; [4])
40: Plant response rating, Blackgrass (blackgrass; [3])
0: Barnyardgrass plant response rating (bamyardgrass; Postemergence, Rate 62 g/ha, scale 0 to 10, 0 is no effect, 10 is complete control) | Barnyardgrass plant response rating (bamyardgrass; Rate 125 g/ha, Postemergence section (flood test species), scale 0 to 10, 0 no effect, 10 complete control) | Barnyardgrass plant response rating (bamyardgrass; [6]) | Plant response rating, Barnyardgrass (bamyardgrass; [7]) | Barnyardgrass plant response rating (bamyardgrass; [9]) | Barnyardgrass plant response rating (bamyardgrass; [10]) | Nutsedge plant response rating (purple nutsedge; [13]) | Plant response rating, Nutsedge (purple nutsedge; [14]) | Plant response rating, Nutsedge (purple nutsedge; [15]) | Nutsedge plant response rating (purple nutsedge; [16]) | Ducksalad plant response rating (duck salad; Postemergence (flood test species), Rate 125 g/ha, scale of 0 to 10 where 0 is no effect and 10 is complete control) | Ducksalad plant response rating (duck salad; Rate 62 g/ha, Postemergence section, flood test species, scale of 0 to 10 where 0 is no effect and 10 is complete control) | Ducksalad plant response rating (duck salad; [6]) | Plant response rating, Ducksalad (duck salad; [7]) | Ducksalad plant response rating (duck salad; [8]) | Ducksalad plant response rating (duck salad; [10])
65: Plant response rating, Green foxtail (green foxtail; [3])
100: Plant response rating, I. Ryegrass (Italian ryegrass; [5]) | Plant response rating, Blackgrass (blackgrass; [5]) | Plant response rating, Wheat (winter) (winter wheat [1]; [5]) | Plant response rating, Green foxtail (green foxtail; Rate 250 g/ha, 0 to 100 scale)
